Data published in US10351501B2, “Gem difluorocompounds as depigmenting or lightening agents” (TFCHEM, priority 2015, dated 2019).
Where two headings read alike, the source gives them in different places.

Experiments:
[1] = biological target: T1, human recombinant tyrosinase (Homo sapiens, UniProt P14679); experiment: Inhibition of human tyrosinase in tubo (L-DOPA substrate, OD at 477 nm), IC50; assay type: biochemical; details: for IC50: Tyrosinase Concentration 300 U/mL
T1 sequence (P14679 19-529): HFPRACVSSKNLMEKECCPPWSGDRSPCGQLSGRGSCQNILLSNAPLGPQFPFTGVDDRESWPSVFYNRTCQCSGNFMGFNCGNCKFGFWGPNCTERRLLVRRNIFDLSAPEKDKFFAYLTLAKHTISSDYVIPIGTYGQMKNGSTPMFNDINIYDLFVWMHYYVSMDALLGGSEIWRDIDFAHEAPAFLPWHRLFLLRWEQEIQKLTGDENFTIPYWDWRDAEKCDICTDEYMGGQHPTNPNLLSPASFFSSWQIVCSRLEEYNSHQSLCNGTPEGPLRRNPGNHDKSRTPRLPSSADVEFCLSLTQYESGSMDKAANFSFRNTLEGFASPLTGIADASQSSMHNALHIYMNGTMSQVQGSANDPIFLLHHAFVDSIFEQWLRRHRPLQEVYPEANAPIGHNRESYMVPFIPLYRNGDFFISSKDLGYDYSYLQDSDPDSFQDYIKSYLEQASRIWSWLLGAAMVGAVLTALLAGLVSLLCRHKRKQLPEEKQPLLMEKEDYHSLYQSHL
Experimental: Substrate solution: L-DOPA (1 mg/mL) Solution B (L-DOPA 20 mg/Purified water up to 20 mL)
Preparation of Test Solutions (for IC50 Test—Examples for Deoxyarbutin)
Inhibitors solutions deoxyarbutin (1 mg/mL): Deoxyarbutin 20 mg in purified water up to 20 mL
This assay used a 96-well plate. Test solutions and controls were made several times.
The results were calculated from the OD measured at time point 20 min.
The determination of half maximal inhibitory concentration (IC50) was performed using the following formula.

[2] = system: human tyrosinase; experiment: HumanLike Tyrosinase Assay kit (Feldan), L-Tyrosine to dopachrome, OD at 490 nm; assay type: biochemical; details: for OD at 490 nm: 1.12 mM
Experimental: The efficacy of compound 16 was evaluated by the inhibition of human tyrosinase in tubo and compared to the compound 11.
The assay was performed with a ready-to-use kit from Feldan Inc (Canada): the HumanLike Tyrosinase Assay kit (ref A021-a-001Kit).
The protocol was performed as described in the instructions for use of the manufacturer. Briefly, this kit is intended for the determination of human tyrosinase activity in presence of different inhibitors. The kit measures the conversion of L-Tyrosine into a dopachrome complex absorbing at 490 nm. The time course of the assay is 20 minutes, after which the results are analyzed and compared.
The compounds 11 and 16 have been tested at a final concentration of 1.12 mM.
The measured absorbances at 490 nm are reported in the table 5 and plotted in function of time in the FIG. 1.
Moreover for each compound the efficacy as tyrosinase inhibitor was calculated using the following formula: […]

Oc1ccc(OC2CCCCC2(F)F)cc1 (racemic) [Compound 11]
IC50 ([1]; mean of 4 tests, read-out: Calculated IC50 Mean (converted)): 35.1 µM | IC50 ([1]; read-out: IC50): 35 µM | IC50 ([1]; time 20 min, read-out: Calculated IC50 Test #1 (converted)): 35.1 µM | IC50 ([1]; time 20 min, read-out: Calculated IC50 Test #2 (converted)): 35.1 µM | IC50 ([1]; time 20 min, read-out: Calculated IC50 Test #3 (converted)): 35.1 µM | IC50 ([1]; time 20 min, read-out: Calculated IC50 Test #4 (converted)): 35.1 µM | inhibits the human recombinant tyrosinase, times more than the Deoxyarbutin ([1]; comparison of IC50): 7-8 times | OD at 490 nm ([2]; time 0 min): 0.0000 | OD at 490 nm ([2]; time 1 min): 0.0095 | OD at 490 nm ([2]; time 2 min): 0.0190 | OD at 490 nm ([2]; time 3 min): 0.0295 | OD at 490 nm ([2]; time 4 min): 0.0400 | OD at 490 nm ([2]; time 5 min): 0.0505 | OD at 490 nm ([2]; time 6 min): 0.0610 | OD at 490 nm ([2]; time 7 min): 0.0715 | OD at 490 nm ([2]; time 8 min): 0.0825 | OD at 490 nm ([2]; time 9 min): 0.0925 | OD at 490 nm ([2]; time 10 min): 0.1035 | OD at 490 nm ([2]; time 11 min): 0.1135 | OD at 490 nm ([2]; time 12 min): 0.1245 | OD at 490 nm ([2]; time 13 min): 0.1355 | OD at 490 nm ([2]; time 14 min): 0.1465 | OD at 490 nm ([2]; time 15 min): 0.1575 | OD at 490 nm ([2]; time 16 min): 0.1685 | OD at 490 nm ([2]; time 17 min): 0.1790 | OD at 490 nm ([2]; time 18 min): 0.1900 | OD at 490 nm ([2]; time 19 min): 0.2010 | OD at 490 nm ([2]; time 20 min): 0.2120 | Inhibitor efficacy (%) ([2]; Compound at 1.12 mM, T = 20 min): 13.5%
